According to patent US8835392B2, “Mimetic peptides and the use thereof in the form of 20S, 26S and immunoproteasome inhibitors” (Technische Universität, priority 2005, dated 2014):
pIC50: −log10 of the molar value. Where a SMILES comes first, the peptide text is derived from it. The star is where a group is joined. Cbz = O=C(OCc1ccccc1)*; OtBu = CC(C)(C)O*

Key:
[1] = system: Human melanoma cells (MeWo); assay: Cell cycle arrest in MeWo cells, propidium iodide FACS; type: cell-based; settings: 24 hours
Protocol: A, Human melanoma cells (MeWo) were treated with increasing concentrations of the compounds 15 or 3 (MG132) for 72 hours. The viability of the cells after the treatment with compound 15 (-♦-) and with MG132 (-□-) was detected by a crystal-violet-staining. B and C, MeWo cells were co-cultivated with the compounds 15 and 3 (MG132) for 24 hours. The cells were subsequently fixed in 70% ethanol, and treated with RNAse A. The DNA was stained with propidium iodide (5 μg/ml), and analysed by means of FACS (FACS Calibur flow cytometer; Beckton Dickinson). The statistical significance was detected by the chi-square-test. The relative distribution of the cells that were present in the G1-(black), in the S-(white) or in the G2 phase (hatched) of the cellular cycle is shown for both compounds as examined (15 in B and MG132 in C).
Human melanoma cells (MeWo) were with the compounds 15 and 3 (MG132) for 24 hours co-cultivated. The cells were washed with PBS, in 70% ethanol fixed and subsequently treated with RNAse A. The DNA was stained with propidium iodide (5 μg/ml) and analysed by means of flow-cytometry (FACS Calibur flow cytometer; Beckton Dickinson). The relative dispersion of the cells that were present in different phases of the cell cycle, could thus be detected. […] The statistical significance was detected by the Chi-square test.

[2] = system: T1, 20S proteasome of S. cerevisiae; assay: Co-crystallisation with 20S yeast-proteasome
T1 construct: crystals of the 20S proteasome of S. cerevisiae were generated in hanging drops
Protocol: For this, crystals of the 20S proteasome of S. cerevisiae were generated in hanging drops at 24° C., as described earlier (6), and incubated for 60 min with compound 15. The protein concentration as used for the crystallization was 40 mg/ml in Tris-HCl (10 mM, pH 7.5), and EDTA (1 mM). The drops contained 3 μl protein and 2 μl reservoir-solution, containing 30 mM magnesium acetate, 100 mM morpholino ethanesulfonic acid (pH 7.2) and 10% MPD.
The space group belonged to P21 with cellular dimensions of a=135.8 Å, b=300.1 ÅA, c=144.4 Å, and (β=113.1°. Data for 2.8 Å were collected using synchrotron-radiation with λ=1.05 Å on the BW6-beamline of the DESY, Hamburg, Germany. Crystals were soaked in a cryo-protecting buffer (30% MPD, 20 mM magnesium acetate, 100 mM morpholino ethanesulfonic acid pH 6.9), and frozen and in a stream of liquid nitrogen gas at 90K (Oxford Cryo Systems). X-ray-intensities were evaluated using the MOSFILM program-package (Version 6.1), and data reduction was performed with CCP4 (24). The anisotropy of the diffraction was corrected by a general anisotropic temperature factor through comparison of the observed and calculated structure-amplitudes using the program X-PLOR (25). An overall number of 2383416 reflexions that led to 248616 unique reflexions (96.9% completeness), was collected. […]

[3] = system: Fibroblasts; assay: Viability of fibroblasts (control); type: cell-based; settings: Fibroblast, identical conditions (72 h), read-out: concentration for 50% reduction of the viability
[4] = target: T2, 20S proteasome β2 trypsin-like activity (VGR-MCA) (Homo sapiens, UniProt P49720+Q99436); assay: Protease assay, trypsin-like activity of isolated 20S proteasomes; type: biochemical; settings: isolated 20S proteasome; VGR-MCA 50 μM; 15 min pre-incubation; read-out: IC50 β2 Trypsin-like (R)
T2 construct: Proteasomes were isolated from red blood cells; from tissue; host or cells: red blood cells
Protocol: Proteasomes were isolated from red blood cells. Cells were lysed with DTT (1 mM), and the stroma-free supernatant was loaded on DEAE-sepharose (Toyopearls). Proteasome was eluted with an NaCl-gradient in TEAD (20 mM TrisCl pH 7.4, 1 mM EDTA, 1 mM azide, 1 mM DTT) of 100 to 300 mM NaCl. Proteasome was concentrated using ammonium sulfate-precipitation (between 40 and 70% saturation) and was separated in a 10-40% sucrose-gradient through centrifugation at 40.000 rpm for 16 hours (SW40; L7, Beckman & Coulter). Finally, the proteasomes were purified on a MonoQ-column and eluted with an NaCl-gradient at about 280 mM NaCl. The fractions containing purified proteasome were dialysed against 50 mM NaCl in TEAD and stored on ice. The purity was determined using SDS-PAGE.
Suc-LLVY-AMC, Z-VGR-AMC and LLE-AMC (BACHEM, Calbiochem) was used, in order to determine the chymotrypsin-like, trypsin-like or caspase-like (post-acidic)-activities of the proteasome. Substrate was incubated with proteasome at 37° C. in assay-buffer (20 mM Tris/Cl, pH 7.2, 1 mM EDTA, 1 mM DTT) for one hour. 100 ng proteasome was pre-incubated with 0.01-10 μM of the inhibitor for […]. The reaction was started by the addition of substrate (50 μM). The AMC as released was detected using fluorescence emission at 460 nm (excitation at 390 nm) using a TECAN-fluorimeter. The activity was calculated in fluorescence-units. The inhibition is depicted by IC50-values.
The effects thereof were compared with the one of the commonly used proteasomal inhibitor 3 (MG132). The chymotrypsin-like (Suc-LLVY-AMC), the trypsin-like (Bz-VGR-AMC), and the caspase-like (Z-LLE-AMC)-activities of 20S proteasomes were determined following incubation for one hour at 37° C.
The IC50-values form the inhibition of the proteasome were calculated at increasing concentrations of the inhibitor. The samples were pre-incubated for 15 min in ice. The assay was started through the addition of 50 μM of one of the following fluorogenic peptide substrates:
The release of MCA was determined at 460 nm emission (excitation 390 nm). The IC50-values as calculated for MG132 served as controls.

`CC(C)CC(C=O)NC(=O)C(CC(=O)OC(C)(C)C)NC(=O)C(CC(C)C)NC(=O)OCc1ccccc1` (stereo not drawn) [Compound 15, Z-Leu-Asp(O^tBu)Leu-CHO] (Cbz-Leu-Asp(OtBu)-Leu-aldehyde; configuration not given here) was tested, and the “concentration giving arrest of the cell cycle in the G2 phase” value [1] was 50 nM, the “binding mode to Thr1Oγ in crystal structure” value ([2]; 2.8 Å) was “covalent hemiacetal bond” and the “specificity for the subunits in crystal structure” value ([2]; high concentrations of the inhibitors (10 mM)) was “no specificity for the subunits”. For the same compound, the pIC50 [3] was 6.00 to 6.30 and the pIC50 [4] was 6.81.
